# How the values were obtained:
# [1] = target: T1, high affinity rolipram binding sites (HARBS, PDE4H); experiment: Binding to particulate HARBS of whole brain, displacement of [3H]-rolipram (Assay II); parameters: species or system guinea pig; conditions: 2 nM [3H]-rolipram, guinea pig whole brain particulates, FIG. 2; read-out: IC50 for displacement of [3H]-rolipram from HARBS
# T1 construct: IC50 for displacement of [3H]-rolipram from HARBS; other: 300 μM, guinea pig, preliminary experimental data; other: guinea pig whole brain particulates; over 300 μM not available due
# Description: The binding experiments are carried on basis of the methods of Schneider et al. and Zhao et al. with a small modification. Under a protocol approved by the Animal Care and Use Committee of Taipei Medical University, five male guinea pigs (Hartley), weighing 500-600 g, were anesthetized. The whole brains taken therefrom were homogenized with in 10 volumes of cold medium (pH 6.5) containing 20 mM Bis-Tris, 2 mM benzamidine, 2 mM EDTA, 50 mM sodium chloride, 0.1 mM phenylmethanesulfonyl fluoride (PMSF), and 1 mM dithiothreitol. At 4° C., the homogenate was centrifuged at 170 g for 15 min for removing blood vessels and connective tissues, and the supernatant thereof was then re-centrifuged at 40,000 g for 30 min for separating the particulates from the cytosol of cells.
# After incubation, the reaction was stopped by transferring the reaction vessel to a bath of crashed ice. Then the reaction mixture was filtered through a punched glass fiber filter (Whatman GF/B) placed in a mini funnel, which was adopted to a 1.5 ml of Eppendorff's tube for collecting the filtrate in the mini centrifuge at 1000 rpm for 10 seconds. By the same way (centrifugation), it is further washed with 0.3 ml reaction buffer each for three times. The Whatman GF/B filter was mixed with 2 ml of cocktail and counted by the β-scintillation counter (Backman, Fullerton, Calif., USA) for counting the radioactivity thereof.
# PDE4 = test system: T2, PDE4; experiment: Inhibition of cyclic nucleotide PDE activity (Assay I), PDE4, incl. Lineweaver-Burk analysis; assay type: biochemical, guinea pig; conditions: mean ± S.E.M. (n); read-out: IC50 on phosphodiesterase isozyme 4
# T2 construct: IC50 on phosphodiesterase isozyme 4; other: mean ± S.E.M. (n)
# Description: (§1) Under a protocol approved by the Animal Care and Use Committee of Taipei Medical University, five male guinea pigs (Hartley), weighing 500-600 g, were sacrificed. The lungs (15 g) or hearts (4 g) taken therefrom were chopped into small pieces and homogenized with a glass/teflon homogenizer (Glas-Col, Terre Haute, Ind., USA) in 10 volumes of cold medium (pH 6.5) containing 20 mM Bis-Tris, 2 mM benzamidine, 2 mM EDTA, 50 mM sodium chloride, 0.1 mM phenylmethanesulfonyl fluoride (PMSF), and 1 mM dithiothreitol. At 4° C., the homogenate was centrifuged at 170 g for 15 min, and the supernatant thereof was then re-centrifuged at 40,000 g for 30 min. […] The column was washed with two bed volumes of homogenate buffer to remove unbound material, where the resin beads therein will bind with proteins, such as PDE proteins. Proteins bound to the Q-sepharose beads were eluted with various concentrations (0.23, 0.34, 0.44, 0.69, and 1.00 M) of NaCl dissolved in homogenate buffer (for each concentration, 40-50 mL elution buffer were applied) at a flow rate of 30 ml/h. Fractions (3 ml each) were collected, and ethylene glycol (EG) was added thereto until a final concentration of 30% (v/v). And then the samples were frozen at −70° C.
# (§2) The activities of PDE1-5 in the homogenate were measured with a two-step procedure according to the method of Thompson and Appleman, using cAMP with [^3H]-cAMP or cGMP with [^3 H]-cGMP as substrates. The PDE enzyme prepared (25 μl) with 10 μl inhibitor or the solvents therefor was incubated for 30 min at 37° C. in a total assay buffer, where the final volume of the assay is amounted to 100 μl. In accordance with the features of the PDE isozymes, the assay buffer contains 50 mM Tris/HCl (pH 7.4), 3 mM MgCl2, 1 mM dithiothreitol, and 0.05% BSA, and optionally contains 1 uM cAMP with 0.2 μCi [^3H]-cAMP as a substrate alone or in the presence of 0.1 unit calmodulin with 10 μM CaCl2, or 5 μM cGMP, and 1 μM cGMP with 0.2 μCi [^3H]-cGMP as another substrate alone or in the presence of 0.1 unit calmodulin with 10 μM CaCl2.
# (§3) The PDE enzyme and the inhibitors (or their solvent) therefor were mixed and incubated on ice for 30 min previously, and then mixed with the assay buffer. The assay was initiated by transferring the mixture to a water bath at 37° C. Following the other 30 min incubation, the reaction was stopped by transferring the reaction vessel to a bath of boiling water for 3 min. After cooling on ice, 20 μl of the 1 mg/ml of Crotalus atrox venom was added to the reaction mixture, and the mixture was incubated at 37° C. for 10 min. The uncatalyzed substrates, such as cAMP, [^3H]-cAMP, cGMP, or [^3H]-cGMP were removed by the addition of 500 μl of a 1-in-1 Tris-HCl (40 mM) buffer suspension of Dowex resin (1×8-200) with incubation on ice for 30 min, since the bindings of the cyclic nucleotides and the resin. Each tube was then centrifuged for 2 min at 6000 rpm, and 100 μl of the supernatant was removed and counted by a β-counter for calculating the enzyme (PDEs) activity.
# The dissociation constant of inhibitor binding (Ki) value was determined from the equation of apparent Km as a function of the inhibitor concentration (insert in A and B, respectively). The slope of the equation is equal to the value of […] (where KM is Michaelis constant). The amounts of the total proteins are calculated based on the analytical method reported by Bradford. In FIGS. 1A and 1B, all enzyme activities are shown as nmole of substrate per mg of proteins per minute (nmole/mg/min) hydrolyzed.
# The IC50 values of flavonoids and various reference drugs were calculated using non-linear regression analysis by the software SigmaPlot 7.0 (Sigma Chemical, St. Louis Mo., USA).
# PDE4H (HARBS) = conditions: references [24-26]; cited from earlier work
# PDE3 = experiment: Inhibition of cyclic nucleotide PDE activity (Assay I), PDE3; assay type: biochemical, guinea pig; conditions: mean ± S.E.M. (n); read-out: IC50 on phosphodiesterase isozyme 3
# Description: as §1, §2, §3
# (§4) The IC50 values of flavonoids and various reference drugs were calculated using non-linear regression analysis by the software SigmaPlot 7.0 (Sigma Chemical, St. Louis Mo., USA). All values are shown as the mean±S.E.M. Differences among values, which are equal or greater to three groups, were statistically calculated by one-way analysis of variance (ANOVA), and then determined by the least significant difference (LSD). The difference between two values, however, was determined by use of Student's unpaired t-test. Differences were considered statistically significant if the P-value was less than 0.05.
# PDE1 = experiment: Inhibition of cyclic nucleotide PDE activity (Assay I), PDE1; assay type: biochemical, guinea pig; conditions: mean ± S.E.M. (n); read-out: IC50 on phosphodiesterase isozyme 1
# Description: Under a protocol approved by the Animal Care and Use Committee of Taipei Medical University, five male guinea pigs (Hartley), weighing 500-600 g, were sacrificed. The lungs (15 g) or hearts (4 g) taken therefrom were chopped into small pieces and homogenized with a glass/teflon homogenizer (Glas-Col, Terre Haute, Ind., USA) in 10 volumes of cold medium (pH 6.5) containing 20 mM Bis-Tris, 2 mM benzamidine, 2 mM EDTA, 50 mM sodium chloride, 0.1 mM phenylmethanesulfonyl fluoride (PMSF), and 1 mM dithiothreitol. At 4° C., the homogenate was centrifuged at 170 g for 15 min, and the supernatant thereof was then re-centrifuged at 40,000 g for 30 min. The final supernatant fraction was filtered through the 0.22 μm filter and applied to a Q-sepharose fast flow column (2.2×28 cm), which is pre-washed and pre-equilibrated in homogenization buffer. The column was washed with two bed volumes of homogenate buffer to remove unbound material, where the resin beads therein will bind with proteins, such as PDE proteins. Proteins bound to the Q-sepharose beads were eluted with various concentrations (0.23, 0.34, 0.44, 0.69, and 1.00 M) of NaCl dissolved in homogenate buffer (for each concentration, 40-50 mL elution buffer were applied) at a flow rate of 30 ml/h. Fractions (3 ml each) were collected, and ethylene glycol (EG) was added thereto until a final concentration of 30% (v/v). And then the samples were frozen at −70° C. Under these conditions, the enzyme activity was stable for at least 3 months.
# In order to eliminate possible contamination of PDE5 by PDE1, the above-collected fractions with enzyme activity was further purified on a calmodulin-agarose column. The column (1.6 cm×4 cm) was pre-equilibrated by a buffer A, which contains 20 mM Bis-tris, 1 mM dithiothreitol, 2 mM benzamidine, 50 mM NaCl, 3 mMMgCl2, 0.1 mM CaCl2, and 0.1 mM PMSF, pH 6.5. The sample (the mixture of PDE5 and PDE1), being purified by the above-mentioned column, with the CaCl2 concentration thereof adjusted to at least 2 mM previously, was loaded and allowed to be absorbed on the gel for 30 min. Then, the PDE isozymes were eluted by stepwise elution using 20 ml of buffer A with 1 M NaCl followed by 20 ml of buffer A with 1 M NaCl and with 1 mM EGTA. PDE5 was collected first followed by PDE1.
# as §2, with “CaCl2. In assay of enzyme inhibition, the assay mixture contained with the inhibitors at various concentrations of flavonoids in the Table 1 or the selective PDE1-5 inhibitors as reference drugs. For example, the selective PDE1-5 inhibitors are vinpocetin [30], EHNA [31], milrinone, Ro 20-1724 [33], and zaprinast, respectively.” for “CaCl2.”
# The PDE enzyme and the inhibitors (or their solvent) therefor were mixed and incubated on ice for 30 min previously, and then mixed with the assay buffer. The assay was initiated by transferring the mixture to a water bath at 37° C. Following the other 30 min incubation, the reaction was stopped by transferring the reaction vessel to a bath of boiling water for 3 min. After cooling on ice, 20 μl of the 1 mg/ml of Crotalus atrox venom was added to the reaction mixture, and the mixture was incubated at 37° C. for 10 min. […]
# PDE2 = target: T3, PDE2 (Cavia porcellus, UniProt A0A286XUV5); experiment: Inhibition of cyclic nucleotide PDE activity (Assay I), PDE2; assay type: biochemical, guinea pig; conditions: mean ± S.E.M. (n); read-out: IC50 on phosphodiesterase isozyme 2
# T3 sequence (A0A286XUV5 22-936): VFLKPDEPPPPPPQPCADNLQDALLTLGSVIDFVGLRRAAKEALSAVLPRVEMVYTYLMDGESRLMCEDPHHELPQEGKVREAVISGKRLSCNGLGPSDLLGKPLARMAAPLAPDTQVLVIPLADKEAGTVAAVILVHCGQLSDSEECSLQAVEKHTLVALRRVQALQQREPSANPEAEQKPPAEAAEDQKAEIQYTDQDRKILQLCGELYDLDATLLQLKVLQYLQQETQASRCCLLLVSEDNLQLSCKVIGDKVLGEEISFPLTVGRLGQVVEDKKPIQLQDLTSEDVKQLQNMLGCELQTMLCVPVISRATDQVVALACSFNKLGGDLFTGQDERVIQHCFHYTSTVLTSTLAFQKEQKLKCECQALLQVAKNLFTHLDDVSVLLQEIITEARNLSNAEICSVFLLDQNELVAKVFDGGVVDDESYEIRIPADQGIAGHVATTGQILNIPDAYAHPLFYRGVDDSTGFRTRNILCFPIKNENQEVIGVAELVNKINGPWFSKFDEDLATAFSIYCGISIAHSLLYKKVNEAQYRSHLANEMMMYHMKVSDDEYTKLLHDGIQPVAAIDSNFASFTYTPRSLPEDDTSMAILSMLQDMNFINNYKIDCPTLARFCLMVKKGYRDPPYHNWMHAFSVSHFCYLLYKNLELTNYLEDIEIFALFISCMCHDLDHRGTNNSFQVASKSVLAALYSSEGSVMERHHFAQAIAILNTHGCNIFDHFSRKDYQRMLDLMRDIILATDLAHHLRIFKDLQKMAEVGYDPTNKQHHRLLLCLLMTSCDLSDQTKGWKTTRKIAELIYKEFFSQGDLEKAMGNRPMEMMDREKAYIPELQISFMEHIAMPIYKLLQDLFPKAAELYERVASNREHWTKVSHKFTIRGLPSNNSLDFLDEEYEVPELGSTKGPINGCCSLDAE
# Description: as §1, §2, §3, §4
compound,measurement,setting,value
"CCCCOc1cc(CC2CNC(=O)N2)ccc1OC (stereo not shown) [Ro 20-1724, reference compound]",IC50,[1],0.0673 µM
same,IC50,PDE4,11.4 ± 1.6 µM
"O=C(Nc1c(Cl)cncc1Cl)C(=O)c1cn(Cc2ccc(F)cc2)c2ccc(O)cc12 [AWD-12-281, N-(3,5-dichloro-pyrid-4-yl)-[1-(4-fluorobenzyl)-5-hydroxy-indole-3-yl]-gly oxylic acid amide]",PDE4H/PDE4L ratio,PDE4H (HARBS),about 11
"Cc1[nH]c(=O)c(C#N)cc1-c1ccncc1 [milrinone, reference compound]",IC50,PDE3,2.4 ± 0.5 µM
"CCOC(=O)C1=C[C@]2(CC)CCCN3CCc4c(n1c1ccccc41)[C@@H]32 [vinpocetine, reference compound]",IC50,PDE1,123 ± 44.9 µM
"COc1c(-c2ccc(OC(C)=O)c(OC(C)=O)c2)oc2cc(OC(C)=O)cc(OC(C)=O)c2c1=O [QMPA, Quercetin 3-O-methyl peracetate]",IC50,[1],8.7 µM
"COc1ccc(C2CC(=O)c3c(OC(C)=O)cc(OC(C)=O)cc3O2)cc1OC(C)=O (stereo not shown) [HTA, hesperetin triacetate]",IC50,[1],> 300 µM
COc1ccc(-c2cc(=O)c3c(O)cc(O)cc3o2)cc1O [Diosmetin],IC50,PDE1,14.4 ± 6.2 µM
same,IC50,PDE3,> 100 µM
"CCCCCC[C@@H]([C@@H](C)O)n1cnc2c(N)ncnc21 (racemic) [EHNA, erythro-9-(2-hydroxy-3-nonyl)adenine, reference compound]",IC50,PDE2,4.4 ± 1 µM

# — patent US20060229358A1, “Pharmaceutical composition containing flavonoids” (Taipei Medical University, priority 2005, published 2006)
